The test system of assay [1] is ATDC5 micromasses. In words: qRT-PCR relative expression of genes of interest in ATDC5 micromass culture (chondrogenesis). The assay is classed as cell-based, mouse. Here is the method:
(§1) Mouse chondrogenic ATDC5 cells (cartilage-specific chondrogenic strain) were cultured until confluent in maintenance medium containing 1:1 Dulbecco's modified Eagle's medium (DMEM): Ham's F-12 mix (Gibco) supplemented with 1% antibiotic (AB, Penicillin-Streptomycin, Gibco), 5% fetal bovine serum (FBS) (Gibco) and enriched with […] human transferrin (Sigma) and 30 nM sodium selenite (Sigma). Cells were trypsinized, washed and resuspended at 2.10^7 cells/mL in a chondrogenic medium made of maintenance medium enriched by 1× of ITS premix (resulting in 10 μg/mL insulin, 10 μg/mL human transferrin and 30 nM sodium selenite) (Life technologies). One droplet of cell suspension (10 μL) was placed at the center of each well of a 24-well plate. Cells were allowed to adhere for 2 h at 37° C., followed by addition of 500 μL chondrogenic medium supplemented. […] After 14 days, induction of hypertrophic differentiation and mineralization was induced by the mineralization medium made of α-MEM medium (Gibco) containing 1% AB, 5% FBS, 5 μg/ml human transferrin, 1× of ITS premix, 50 μg/ml ascorbic acid-2-phosphate (AA) (Sigma) and 10 mM β-glycerophosphate (BGP) (Sigma). […] Micromasses were collected at time points 1, 7, 14 21 and 28 days. Each time point was processed in three technical replicates. The medium was changed every other day. […] The genes of interest were articular chondrocyte markers (aggrecan, type 2 collagen (col2a1)), YAP/TAZ target genes (ctgf, ankrd) and pro-catabolic enzymes involved in the pathophysiology of OA (mmp3, mmp13).
Total RNA was isolated using the Nucleospin RNA II kit (Macherey-Nagel) and reverse-transcribed using the MMLV reverse transcriptase (Thermo Fisher Scientific) following the manufacturers' instructions. The iTaq SYBR green qPCR master mix (BioRad) was used to assess the mRNA expression of target genes of interest. Primer sequences can be provided upon request. The following PCR conditions were used: 1 minute at 95° C., 40 cycles of 15 sec of denaturation at 95° C., followed by 1 minute of annealing-elongation at 60° C. Melting curve analysis was performed to determine the amplification of the specific product. Results were expressed using the comparative threshold method and were normalized to housekeeping gene PPIA (Peptidylprolyl Isomerase A) mRNA level for ATDC5 cells and MACs, or normalized to housekeeping gene S29 (ribosomal protein S29) mRNA level for MC3T3-E1 cells. The Via7 real-time PCR system (Thermo Fisher Scientific) was used for qRT-PCR measurements.
ATDC5 cells were cultured as micromasses and differentiated during 14 days using ITS as mentioned previously. […] RNA was isolated and qPCR were performed for different target genes, i.e. type II collagen and aggrecan (articular chondrocyte extracellular matrix), CTGF (YAP/TAZ target genes, indicators of the pathway activity) and MMP3 (cartilage degrading enzyme increased during osteoarthritis) (FIG. 15). Alcian blue staining was performed on the micromasses cultures, and biochemical quantitation was performed as previously described (FIG. 16).
ATDC5 cells were cultured as micromasses and differentiated during 14 days using ITS as mentioned previously. […] RNA was isolated and qPCR were performed for different target genes, i.e. type II collagen and aggrecan (articular chondrocyte extracellular matrix), CTGF (YAP/TAZ target gene, indicator of the pathway activity) and MMP3 (cartilage degrading enzyme increased during osteoarthritis) (FIG. 17). Alcian blue staining was performed on the micromasses cultures, and biochemical quantitation was performed as previously described (FIG. 18).
In general terms: Quantitative PCR measures a nucleic acid by following its amplification.

Assay [2] has as its system ATDC5 micromasses. In words: Glycosaminoglycan/proteoglycan quantification (Alcian blue staining) in ATDC5 micromasses. The class given is cell-based, mouse. Here is the method: as §1
Micromasses were washed with PBS and fixed with 95% ice-cold ethanol for 30 min at 4° C. for staining. After washing with distilled water, micromasses were stained with Alcian Blue (0.1% Alcian Blue 8GX, (Sigma)), washed three times with distilled water to remove unbound staining and air-dried.

Another assay deals with Wnt/β-catenin pathway. The assay can be described thus: Western blot of Wnt/β-catenin pathway activation in ATDC5 micromasses. Particulars: PEP16 at 100 and 300 ng/mL; day 1, 7, 14, 21; during chondrogenesis. The class given is cell-based, mouse. Here is the method: (§2) Mouse chondrogenic ATDC5 cells (cartilage-specific chondrogenic strain) were cultured until confluent in maintenance medium containing 1:1 Dulbecco's modified Eagle's medium (DMEM): Ham's F-12 mix (Gibco) supplemented with 1% antibiotic (AB, Penicillin-Streptomycin, Gibco), 5% fetal bovine serum (FBS) (Gibco) and enriched with […] human transferrin (Sigma) and 30 nM sodium selenite (Sigma). Cells were trypsinized, washed and resuspended at 2.10^7 cells/mL in a chondrogenic medium made of maintenance medium enriched by 1× of ITS premix (resulting in 10 μg/mL insulin, 10 μg/mL human transferrin and 30 nM sodium selenite) (Life technologies). One droplet of cell suspension (10 μL) was placed at the center of each well of a 24-well plate. Cells were allowed to adhere for 2 h at 37° C., followed by addition of 500 μL chondrogenic medium supplemented. […] After 14 days, induction of hypertrophic differentiation and mineralization was induced by the mineralization medium made of α-MEM medium (Gibco) containing 1% AB, 5% FBS, 5 μg/ml human transferrin, 1× of ITS premix, 50 μg/ml ascorbic acid-2-phosphate (AA) (Sigma) and 10 mM β-glycerophosphate (BGP) (Sigma). […] Micromasses were collected at time points 1, 7, 14 21 and 28 days. Each time point was processed in three technical replicates. The medium was changed every other day. […]
Background: A western blot detects proteins with antibodies after separation by electrophoresis.

The test system of assay [3] is CamKII pathway. The assay can be described thus: Western blot of CamKII pathway activation in ATDC5 micromasses. The assay is classed as cell-based, mouse. To be noted: PEP16 at 100 and 300 ng/mL; pre-mineralization phase of chondrogenesis (D14). Here is the method:
as §2

A further assay concerns MMP13. The assay can be described thus: MMP13 enzymatic activity in culture supernatants of human articular cartilage explants (osteoarthritis). Particulars: PEP16 at 300 ng/mL for 7 days (3 stimulations); explants from 3 patients with end-stage osteoarthritis. The assay is classed as cell-based. Here is the method:
Explants of human articular cartilage were obtained from total knee replacement surgeries, from the orthopedic department from the CHRU of Nancy (Pr. Didier Mainard). Samples were washed three times in 1% AB/PBS and incubated for 24 h in growth medium (DMEM-F12, containing 1% AB (Gibco), 10% FBS (Gibco) and 5% L-glutamine (Thermoscientific). Explants were then stimulated with PEP16 at the concentration of 300 ng/ml during 7 days. The culture supernatants were then harvested in order to perform MMP13 enzymatic activity assay.
The MMP13 enzymatic activity was assessed using the MMP13 fluorogenic substrate (Merck Millipore). Briefly, culture supernatants harvested at the end of the different experiments were mixed with 1.5 mM of 4-aminophenylmercuric acetate, and incubated for 1 h at 37° C., in order to turn every pro-MMPs into active MMPs. Then, the fluorogenic substrate was added, and the mixture was incubated for 3 h at 37° C. Fluorescence was evaluated using the following parameters, excitation 325 nm and emission 393 nm, on the Varioskan Flash device (Thermo Fisher Scientific). Recombinant human MMP13 was used as a positive control (Merck Millipore). Negative control consisted in growth medium.

Assay [4] relates to CamKII pathway. The assay can be described thus: Western blot of CamKII pathway activation in MC3T3-E1 cells. The class given is cell-based, mouse. To be noted: PEP16 at 300 or 1000 ng/mL; early osteogenesis stages. An excerpt: Each time point was processed in three technical replicates. The medium was changed every two days.
Assay [5] relates to 8×YAP response elements (8×GTIIC reporter). Particulars: PEP16 at 30 ng/ml; 24 h.
Protocol: Results were normalized by-cotransfecting each of the above plasmid with the tyrosine kinase-renilla luciferase plasmid (Promega). Transfections were carried out using the Dharmafect kb transfection reagent (Fisher Scientific). Briefly, reporter plasmids and transfection reagent were diluted in serum-free medium, and then the diluted Dharmafect kb was added to the plasmids for an incubation time of 10 minutes at room temperature. During that time, cells were rinsed with PBS and were placed in fresh maintenance medium. When incubation was over, the mixture of transfection reagent-plasmids was dispensed in each well. Stimulations (with Wnt3a and/or PEP16 and/or PEP16bis) were carried out the next day.
The test system of the next assay is alkaline phosphatase. To be noted: 300 ng/ml, 1000 ng/ml; day 1 and day 21; vs CTL.
Setting [6] is: 300 ng/ml, differentiated 14 days with ITS, D14 vs CTL.
Where [7] appears, read: PEP16 at 30, 100, 300 ng/mL, day 1, 7, 14, 21, 28, vs non-treated control, normalized with ppia.

Protocol for alkaline phosphatase: MC3T3-E1 cells were differentiated during 21 days as mentioned previously. […] Treated cells were compared to cells without any peptide stimulation (CTL).
We also assessed the specific alkaline phosphatase activity (μmol de para-nitrophenol/min/mg of protein). To that goal, we lysed the cells using 300 μL of a buffer containing 0.2 M Tris-Base, 1.6 mM MgCl2 pH 8.1 and 1% Triton X-100. Samples were then placed into tubes and put on ice for 30 min. During this time, we alternated periods of 30 sec vortex and 5 min on ice. Then, samples were sonicated, and centrifugated for 15 min at 13 000 g, 4° C. Supernatant was collected, and total protein concentration was evaluated using bicinchoninic acid assay.
Alkaline phosphatase activity was measured by placing the harvested supernatants in para-nitrophenyl phosphate (pNPP) solution. The alkaline phosphatase will cleave this substrate and generate para-nitrophenol (pNP).
A solution of 4 mg/mL of pNPP is prepared in buffer A (0.1 M glycine pH 10.5, 0.11% (m/v) Zinc acetate and 0.011% magnesium chloride (m/v)). […]
Absorbance is read at 410 nm on a Varioskan Flash apparatus. Alkaline phosphatase activity is calculated based on the standard curve (equation A410=a×quantity(ρNP)+b) with the following formula: activity=((A(410 nm)−b)×reaction volume)/(a×sample volume×reaction time)

With DRLGKKVKRWDMKLRH (PEP16), in the assay with ATDC5 micromasses [1] (setting [6]), the MMP3 expression result was “significant decrease”; the “YAP/TAZ target genes (CTGF) expression” value is “significant decrease”; the “articular chondrocyte extracellular matrix genes (type II collagen and aggrecan) expression” value is reported as “significant increase”. In the assay on ATDC5 micromasses [1] (setting [7]), the “relative expression level of aggrecan” value is listed as “significantly enhanced the induction of the expression”, the “relative expression level of col2a1 (type 2 collagen)” value is on record as “significantly enhanced the induction of the expression”, the “relative expression level of ctgf (Hippo/YAP/TAZ target gene)” value is reported as “efficiently reduced the expression” and the “relative expression level of mmp3” value is “efficiently reduced the expression”. In the assay on ATDC5 micromasses [1] (setting [7]), the “relative expression level of mmp13” value is given as “efficiently reduced the expression”. In addition, the “proteoglycans deposition in the extracellular matrix (Alcian blue, absorbance 650 nm)” value in the assay with ATDC5 micromasses [2] (300 ng/ml, 14 days, vs control cells) is listed as “significantly increase the proteoglycans deposition”. Moreover, the “glycosaminoglycans quantification (accumulation in the extracellular matrix)” value in the assay with ATDC5 micromasses [2] (PEP16 at 30, 100, 300 ng/mL, Alcian blue at day 28, blue pixels and biochemical quantification) is “significantly increased the accumulation of glycosaminoglycans”. The “Wnt/β-catenin pathway activation (active protein form over total protein form)” value in the assay on Wnt/β-catenin pathway is reported as “reduced in the activation of the Wnt/β-catenin pathway”. Besides, in the assay with CamKII pathway [3], the “CamKII pathway activation (P-CamKII over total)” value is given as “increased the activation of the CamKII pathway”. In addition, the “MMP13 enzymatic activity in culture supernatant” value in the assay with MMP13 was “capable of reducing the enzymatic activity”. The CamKII pathway activation entry in the assay on CamKII pathway [4] was “efficiently increased the activation”. The “activity of the Hippo/YAP/TAZ pathway in a luciferase-type reporter system (Firefly/renilla ratio)” value in assay [5] is “significantly reduced the activity”. In addition, the “specific alkaline phosphatase activity” value in the assay with alkaline phosphatase is “tended to increase the alkaline phosphatase activity”.

Source of the values: US20230183303A1, “Therapeutic Potential of Peptides from the "Netrin-Like" Domain of the FRZB Protein” (Université de Lorraine, priority 2020, published 2023).
